For this series, the system named is human meltrin α RNA. As to the kind of experiment: Suppression of human meltrin α expression by antisense compound in RD cell (real time PCR). It counts as cell-based. Particulars: RD cell. The procedure:
First, RD cell (ATCC) was suspended in DMEM containing 10% fetal bovine serum (FBS, SIGMA), and the suspension was inoculated in 6 well culture plate at 2.5×10^5 cells/well/2 mL. After incubating overnight at 37° C. in the presence of 5% CO2, the cells were washed twice with serum-free DMEM, and Opti-MEM medium (GIBCO) was added at 800 μL/well.
Gene transfection reagent Lipofectin (Invitrogen) was diluted with Opti-MEM to 20 μg/mL, and the dilution was allowed to stand at room temperature for 30 minutes. Next, the antisense oligodeoxynucleotide synthesized as described above was heated at 90° C. for 3 minutes, and after quenching on ice, diluted with Opti-MEM to a concentration 10 times higher than the final concentration. Equal amounts of the Lipofectin in Opti-MEM and the antisense oligo DNA in Opti-MEM were mixed, and the mixture was incubated at room temperature for 15 minutes and added to 6 well plate at 200 μL/well.
The culture was incubated at 37° C. for 4 hours in the presence of 5% CO2, and the culture supernatant containing the Lipofectin was removed. The cells were washed twice with serum-free DMEM, and after adding 1 mL/well of Opti-MEM and incubating for 18 hours at 37° C. in the presence of 5% CO2, the cells were subjected to the measurement of the level of expression of meltrin α RNA.
After the washing, RNA was isolated from the cell by using RNA isolation kit (RNeasy Micro Kit, QIAGEN) according to the protocol of the kit, and RNA concentration was determined by measuring absorbance at a wavelength of 260 nm with a spectrophotometer (Nano prop, LMS Co., Ltd.) (1OD=40 μg/mL). After the quantitation, the RNA was prepared to a concentration of 0.1 μg/μL by using DEPC-treated water.
0.35 μg of the isolated RNA, and 3.5 μL of 10× TaqMan buffer, 7.7 μL of 25 mM MgCl2, 7.0 μL of 2.5 mM each dNTP Mix, 1.75 μL of 50 μM Random Hexamers, 0.7 μL of 20 U/μL RNase inhibitor, and 0.9 μL of 50 U/μL MultiScribe Reverse Transcriptase (all purchased from Applied Biosystems) were mixed, and water was added to make up the total volume to 35 μL. This solution was maintained at 25° C. for 10 minutes, at 48° C. for 30 minutes, and at 95° C. for 5 minutes, and reverse transcription was conducted to synthesize cDNA.
A solution in total volume of 20 μL containing 10 μL of TaqMan Universal PCR Master Mix, 0.4 μL of 10 μM TaqMan MGB Probe (sequence 5′FAM-caccgaaggacaatccca-MGB-3′: Applied Biosystems), 0.1 μL of 50 μM Forward primer (sequence ggaagccgccagattcct) for detecting meltrin α, 0.1 μL of 50 μM Reverse primer (sequence […]) for detecting meltrin α (all purchased from Sigma-Genosys), 5 μL of the cDNA solution of (3), and 4.4 μL of water was prepared, and after maintaining the solution at 50° C. for 2 minutes and at 95° C. for 10 minutes, PCR was conducted by repeating 40 cycles of 95° C. for 15 seconds and 60° C. for 1 minute in ABI Prism 7000.
The amount of the human meltrin α RNA was measured by conducting real time PCR by using the plasmid containing the cDNA coding for the human meltrin α for the template to generate the standard curve, and calculating RNA copy number of the meltrin α in each sample. The level of expression of GAPDH was also determined by using a primer and probe set for real time PCR of human GAPDH (Pre-Developed TaqMan Assay Reagents Human GAPDH (20×) (Cat# 4310884E, Applied Biosystems).
The results of the real time PCR of the meltrin α was corrected by the level of expression of the GAPDH to calculate the suppression rate. […]

Where [1] appears, read: chimeric 2′-methoxy antisense oligonucleotides.

In the oligonucleotide strings, read from the 5' end, every base follows the letter of its sugar. An asterisk marks phosphorothioate; unmarked linkages are phosphodiester. Other units and linkages are bracketed, terminal groups are in braces. A string of capitals states the bases alone. d = 2'-deoxy (DNA)

For “H035: ctgaatcagaatatccccgt (CTGAATCAGAATATCCCCGT; antisense; DNA, all phosphorothioate, methylation of C not given here)”, the “suppression rate of expression, 200 nM” value (corrected by GAPDH) is “++ (“++” when the suppression rate was at least 50%)”. Consider “H144 + 9: atctgcaggcagaggcttct (ATCTGCAGGCAGAGGCTTCT; antisense; DNA, all phosphorothioate, methylation of C not given here)”, for which the “suppression rate of expression, 50 nM” value (corrected by GAPDH) was “+ (“+” when the suppression rate was at least 30%)”. For “H136: ttgaggggtctgctgatgtc (TTGAGGGGTCTGCTGATGTC; antisense; DNA, all phosphorothioate, methylation of C not given here)”, where the note is “corrected by GAPDH”, the “suppression rate of expression, 50 nM” value was “+ (“+” when the suppression rate was at least 30%)” and the “suppression rate of expression, 200 nM” value is “+++ (“+++” when the suppression rate was at least 70%)”. “H143 + 12: tctgaggggggtttggctta (TCTGAGGGGGGTTTGGCTTA; antisense; DNA, all phosphorothioate, methylation of C not given here)”: where the note is “corrected by GAPDH”, the “suppression rate of expression, 50 nM” value is “+ (“+” when the suppression rate was at least 30%)”. Turning to “H071: ccatttgacagctacagccc (dC*dC*dA*dT*dT*dT*dG*dA*dC*dA*dG*dC*dT*dA*dC*dA*dG*dC*dC*dC; antisense)”, the “suppression rate of expression, 200 nM” value (corrected by GAPDH) was “+ (“+” when the suppression rate was at least 30%)”. As for “H145 + 4: tgttctggccagaggatctg (dT*dG*dT*dT*dC*dT*dG*dG*dC*dC*dA*dG*dA*dG*dG*dA*dT*dC*dT*dG; antisense)”, under “corrected by GAPDH”, the “suppression rate of expression, 50 nM” value is “++ (“++” when the suppression rate was at least 50%)”. For “H189: gccttgagtgacactacaga (dG*dC*dC*dT*dT*dG*dA*dG*dT*dG*dA*dC*dA*dC*dT*dA*dC*dA*dG*dA; antisense)”, where the note is “corrected by GAPDH”, the “suppression rate of expression, 200 nM” value is “+ (“+” when the suppression rate was at least 30%)”. Consider “H139: gcccggtggaggggaggaag (GCCCGGTGGAGGGGAGGAAG; antisense; DNA, all phosphorothioate, methylation of C not given here)”, for which, where the note is “corrected by GAPDH”, the “suppression rate of expression, 50 nM” value is given as “+ (“+” when the suppression rate was at least 30%)” and the “suppression rate of expression, 200 nM” value is listed as “+++ (“+++” when the suppression rate was at least 70%)”. “H045: agagggtggtggaaacacat (AGAGGGTGGTGGAAACACAT; antisense; DNA, all phosphorothioate, methylation of C not given here)”: the “suppression rate of expression, 200 nM” value (corrected by GAPDH) is “++ (“++” when the suppression rate was at least 50%)”. For “H144 + 5: gcaggcagaggcttctgagg (GCAGGCAGAGGCTTCTGAGG; antisense; DNA, all phosphorothioate, methylation of C not given here)”, the “suppression rate of expression, 50 nM” value (corrected by GAPDH) is recorded as “++ (“++” when the suppression rate was at least 50%)”. On to “H221: gaaacatggctccctagtca (dG*dA*dA*dA*dC*dA*dT*dG*dG*dC*dT*dC*dC*dC*dT*dA*dG*dT*dC*dA; antisense)”, for which the “suppression rate of expression, 200 nM” value (corrected by GAPDH) was “+ (“+” when the suppression rate was at least 30%)”.

In the case of “H150: ttggtgtggatattgtggag (dT*dT*dG*dG*dT*dG*dT*dG*dG*dA*dT*dA*dT*dT*dG*dT*dG*dG*dA*dG; antisense)”, for the setting “corrected by GAPDH”, the “suppression rate of expression, 50 nM” value is listed as “+ (“+” when the suppression rate was at least 30%)” and the “suppression rate of expression, 200 nM” value is “+++ (“+++” when the suppression rate was at least 70%)”. The matching figures for “H149: caggtctgaggggtgccagg (dC*dA*dG*dG*dT*dC*dT*dG*dA*dG*dG*dG*dG*dT*dG*dC*dC*dA*dG*dG; antisense)”: “+ (“+” when the suppression rate was at least 30%)” and “+++ (“+++” when the suppression rate was at least 70%)”. For “H094: atgccattgtagcagtagcc (dA*dT*dG*dC*dC*dA*dT*dT*dG*dT*dA*dG*dC*dA*dG*dT*dA*dG*dC*dC; antisense)”, under “corrected by GAPDH”, the “suppression rate of expression, 200 nM” value is “+ (“+” when the suppression rate was at least 30%)”. Still for that read-out and setting: next, “H114: gtgaaccccaaagacactaa (dG*dT*dG*dA*dA*dC*dC*dC*dC*dA*dA*dA*dG*dA*dC*dA*dC*dT*dA*dA; antisense)”: “+ (“+” when the suppression rate was at least 30%)”; “H229: aaagaaggctttctcataaa (dA*dA*dA*dG*dA*dA*dG*dG*dC*dT*dT*dT*dC*dT*dC*dA*dT*dA*dA*dA; antisense)”: “+ (“+” when the suppression rate was at least 30%)”.

“H130 + 10: gaggtgagcctgacagggtt (GAGGTGAGCCTGACAGGGTT; antisense; DNA, all phosphorothioate, methylation of C not given here)”: the “suppression rate of expression, 50 nM” value (corrected by GAPDH) is on record as “+ (“+” when the suppression rate was at least 30%)”. As for “H172: gcacagctgggggtagttgg (dG*dC*dA*dC*dA*dG*dC*dT*dG*dG*dG*dG*dG*dT*dA*dG*dT*dT*dG*dG; antisense)”, where the note is “corrected by GAPDH”, the “suppression rate of expression, 50 nM” value is listed as “+ (“+” when the suppression rate was at least 30%)” and the “suppression rate of expression, 200 nM” value is recorded as “+++ (“+++” when the suppression rate was at least 70%)”. For “H077-OMe2: chimeric antisense oligonucleotide AAACAggcacaccccCATTC, uppercase 2′-methoxy nucleotides, lowercase phosphorothioate nucleotides (AAACAGGCACACCCCCATTC; 2'-O-methyl at 1, 2, 3, 4, 5, 16, 17, 18, 19, 20, other sugars, backbone and T or U not given here; lowercase gap nucleotides phosphorothioate)”, the “suppression rate of expression, 200 nM” value under setting [1] is listed as “+ (“+” when the suppression rate was at least 30%)”. Take “H164: atgcctactacagcgcactg (dA*dT*dG*dC*dC*dT*dA*dC*dT*dA*dC*dA*dG*dC*dG*dC*dA*dC*dT*dG; antisense)”: the “suppression rate of expression, 200 nM” value (corrected by GAPDH) is “++ (“++” when the suppression rate was at least 50%)”. The same measure, in the same setting: then “H031: tcagtaccgtcttgcagata (TCAGTACCGTCTTGCAGATA; antisense; DNA, all phosphorothioate, methylation of C not given here)”, with “+ (“+” when the suppression rate was at least 30%)”.

For “H136 + 16: agggacattcaggccgttga (AGGGACATTCAGGCCGTTGA; antisense; DNA, all phosphorothioate, methylation of C not given here)”, for the setting “corrected by GAPDH”, the “suppression rate of expression, 50 nM” value is given as “+ (“+” when the suppression rate was at least 30%)”. Take “H166: aacaagccttcctgccatgg (dA*dA*dC*dA*dA*dG*dC*dC*dT*dT*dC*dC*dT*dG*dC*dC*dA*dT*dG*dG; antisense)”: the “suppression rate of expression, 200 nM” value (corrected by GAPDH) is reported as “++ (“++” when the suppression rate was at least 50%)”. In the case of “H075-OMe1: chimeric antisense oligonucleotide TGCTGcaactgctgaACACC, uppercase 2′-methoxy nucleotides, lowercase phosphorothioate nucleotides (TGCTGCAACTGCTGAACACC; 2'-O-methyl at 1, 2, 3, 4, 5, 16, 17, 18, 19, 20, other sugars, backbone and T or U not given here; lowercase gap nucleotides phosphorothioate)”, the “suppression rate of expression, 200 nM” value under setting [1] is given as “+ (“+” when the suppression rate was at least 30%)”. Turning to “H115: tggcactgcattgcacactc (dT*dG*dG*dC*dA*dC*dT*dG*dC*dA*dT*dT*dG*dC*dA*dC*dA*dC*dT*dC; antisense)”, the “suppression rate of expression, 200 nM” value (corrected by GAPDH) is recorded as “++ (“++” when the suppression rate was at least 50%)”.

The record behind these values is patent US20080292619A1, “Pharmaceutical Composition Containing Meltrin Antagonist” (MOCHIDA PHARMACEUTICAL CO., LTD., priority 2004, published 2008).
